Assay results as given in patent US12116365B2, “Heterocyclic compounds and uses thereof” (Opna Bio SA, priority 2015, dated 2024).
“Also recorded” adds a separate entry of the source.

Columns and labels:
[1] = tested on: IPC298 Xenograft; experiment: IPC298 xenograft model, tumor growth; assay type: in vivo, mice; details: for antitumor activity (in words): 10 mg/kg po QD x16; for Average Tumor Volume (mm^3) / Tumor Size (Day 27, mm^3) / TGI (%): 10 mg/kg po QD; for TGI (%): tumor growth inhibition
Method: Treatment: The treatments started on Day 11 after tumor inoculation when the mean tumor size reached approximately 150 mm^3. Mice were randomized into 10 study groups and each group consisted of 8 mice. The test articles were administrated to the tumor-bearing mice according to predetermined treatment regimen as shown in Table 3.
Tumor measurements and the endpoints: The major endpoint was to see if the tumor growth could be delayed or regressed. Tumor size was measured twice a week in two dimensions using a caliper, and the volume was expressed in mm^3 using the formula: V=0.5a×b^2 where a and b are the long and short diameters of the tumor, respectively. The tumor size was then used for calculation of tumor growth inhibition (TGI, in percent). The TGI value is an indication of antitumor effectiveness: TGI=(1−T/C)×100%. T and C are the means of relative tumor volumes of the treated and control groups, respectively. T and C are calculated using the formula: T=Td/T0×100%, C=Cd/C0×100%, where Td and Cd are tumor volumes of the treated and control animals, respectively, on Day 28 after tumor inoculation; T0 and C0 are tumor volumes of the treated and control animals, respectively, at the start of the treatment

[2] = Toxicity profile, body weight in Ba/F3 splenomegaly model; assay type: in vivo; design: Delta Body Weight Loss: unit not given here; details: for observed toxicity (in words): 10 mg/kg over 7 days of dosing; for Delta Body Weight Loss: 10 mg/kg oral QD
Text: The […] cell line, Ba/F3, depends on the addition of IL-3 for growth in cell culture. However Ba/F3 cells engineered to express a full length oncogene is capable of rendering Ba/F3 cells factor-independent, but become apoptotic when the oncogene or downstream signaling is inhibited by the addition of small molecule inhibitors. When injected into the tail veins of nude mice, the factor-independent Ba/F3 cells home to the spleen and proliferate to cause a marked splenomegaly. The in vivo proliferation of the factor-independent Ba/F3 cells and appearance of splenomegaly are directly dependent on the activity of the Ba/F3 cells and can be blocked by oral administration of compounds that are effective inhibitors of cell growth. Therefore, this animal model can be used to ascertain the effective doses for Ba/F3 cell inhibition, evaluation of both PK/PD effects as well as a readout of toxicity or MTD.
FIG. 2 illustrates the observed toxicity when dosing Compound P-001 and Compound Z at 10 mg/kg to nu/nu mice over a period of 7 days.

[3] = Rat PK, cassette dosing, IV and PO; assay type: in vivo; details: for Cl (mL/min/Kg) / Vss (L/Kg) / AUC / Cmax / Tmax / half-life: Mean (SE); for AUC / Cmax / Tmax / half-life / bioavailability: plasma
Method: Rat PK data was determined using a cassette dosing format with 5 compounds administered to each of three rats for IV and three rats for PO. The IV dose was 1 mg/kg for each compound in 8.75% solutol, 8.75% ethanol, 12.5% DMSO and 70% water by volume. The PO dose was 2 mg/kg for each compound in 1% methylcellulose in water, 10% DMSO by volume. Plasma IV samples were collected at 15 min, 30 min, 1 hr, 2 hrs, 4 hrs, 8 hrs, and 24 hrs. Plasma PO samples were collected at 30 min, 1 hr, 2 hrs, 4 hrs, 8 hrs, and 24 hrs. Plasma drug concentrations were determined by LC/MS/MS after standard curve calibration for each test article. Dosing solutions were also analyzed for test article and used to calculate the administered dose. The PK parameters were calculated using WinNonLin (v 6.3, Phoenix 64, Pharsight) using a noncompartmental model.
Tables 1 and 2 show comparative data for both intravenous (IV) and peroral (PO) administration in rat for Compound P-001 of this disclosure and a similar structural compound disclosed in the WO 2014/145051, Compound Z. Values are reported as the Mean with the Standard Error (SE) in parentheses.

[4] = Table 2, titled Peroral (PO) Administration in Rat
[5] = 1 mg/kg, Table 1, titled Intravenous (IV) Administration in Rat
[6] = 2 mg/kg, Table 2, titled Peroral (PO) Administration in Rat

Compound | antitumor activity (in words) [1] | Average Tumor Volume (mm^3) ([1]; Day 0) | Average Tumor Volume (mm^3) ([1]; Day 4) | Average Tumor Volume (mm^3) ([1]; Day 6) | Average Tumor Volume (mm^3) ([1]; Day 8) | Average Tumor Volume (mm^3) ([1]; Day 11) | Average Tumor Volume (mm^3) ([1]; Day 13) | Tumor Size (Day 27, mm^3) [1] [mm^3] | TGI (%) [1] [%] | observed toxicity (in words) [2] | Delta Body Weight Loss ([2]; Day 1) | Delta Body Weight Loss ([2]; Day 2) | Delta Body Weight Loss ([2]; Day 3) | Delta Body Weight Loss ([2]; Day 5) | Delta Body Weight Loss ([2]; Day 6) | Delta Body Weight Loss ([2]; Day 7) | Cl (mL/min/Kg) [3, 4] | Vss (L/Kg) [3, 4] | AUC [3, 5] [ng·h/mL] | Cmax [3, 5] [ng/mL] | further results
Cc1noc(C)c1-c1cnc2c(-c3ccc(C(=O)O)cc3)cn(C(C)(c3ccccn3)c3ccccn3)c2c1 [Compound P-001, 4-(1-(1,1-di(pyridin-2-yl)ethyl)-6-(3,5-dimethylisoxazol-4-yl)-1H-pyrrolo[3,2-b]pyridin-3-yl)benzoic acid] | strong antitumor activity; also recorded: strong therapeutic efficacy | 124.7 | 94.5 | 91.5 | 90.0 | 96.9 | 99.2 | 99.2 ± 13.5 | 112 | no toxicity was observed | 0 | 0.75 | 1.375 | 1.125 | 1.825 | 2.075 | 3 (0) mL/min/Kg | 0.469 (0.015) L/Kg | 7670 | 1210 | rat PK compared to Compound Z (in words) ([3]; IV and PO): dramatic improvement; Tmax [3, 5]: 40.2 min; half-life [3, 5]: 248 min; AUC [3, 6]: 7670 ng·h/mL; bioavailability [3, 6]: 103%
Cc1noc(C)c1-c1cnc2c(-c3ccc(C(=O)O)cc3)cn(C(c3ccccn3)c3ccccn3)c2c1 [Compound Z, reference compound] | moderate antitumor activity | 124.0 | 119.8 | 124.0 | 120.6 | 106.8 | 141.5 | 141.5 ± 16.3 | 92 | significant toxicity after the 2nd day of dosing | 0 | −0.125 | −0.6 | −1.125 | −2.475 | −3.75 | 36 (4) mL/min/Kg | 1.061 (0.109) L/Kg | 125 | 80 | Tmax [3, 5]: 30 min; half-life [3, 5]: 78.6 min; AUC [3, 6]: 125 ng·h/mL; bioavailability [3, 6]: 17%
